Data taken from US20240409585A1, “MACROCYCLIC IMMUNOMODULATORS” (priority 2021, published 2024).
Numbered stars: 1 amine (or outer) side, 2 acyl side, 3 side chain; on linkers, the order of the positions; unused ones are H or OH. Bridge positions count the residues as written; N and C are the ends. Square brackets hold non-standard residues; d marks the D form. Peptide text beside a SMILES is read from it. * marks the point of attachment. X40 = O=C([C@H](Cc1ccc(-c2cccc(O)c2)cc1)N[*:1])[*:2]; Phe(4-CH2NH2) = NCc1ccc(C[C@H](N)C(=O)O)cc1; Asp(3,3-Me2) = CC(C)(C(=O)O)[C@H](N)C(=O)O; Bip = N[C@@H](Cc1ccc(-c2ccccc2)cc1)C(=O)O; Phe(3-Me) = Cc1cccc(C[C@H](N)C(=O)O)c1; Val(3-OH) = CC(C)(O)[C@H](N)C(=O)O; 2Pal = N[C@@H](Cc1ccccn1)C(=O)O; 4Pal = N[C@@H](Cc1ccncc1)C(=O)O; Cha = N[C@@H](CC1CCCCC1)C(=O)O; Cit = NC(=O)NCCC[C@H](N)C(=O)O; Carboxymethyl = O=C(O)C*; NMeA = CN[C@@H](C)C(=O)O; Dab = NCC[C@H](N)C(=O)O

Biological target: T1, PE-labeled human PD-L1-Ig binding to Jurkat cell line over-expressing human PD-1 (Jurkat-PD-1) (Homo sapiens, UniProt Q15116)
T1 construct: expressed in transfected cells; host or cells: Jurkat
Experiment: Jurkat-PD-1 Cell Binding High-Content Screening Assay (CBA): Method 1
Details: Jurkat-hPD-1 cells, PE-labeled PD-L1-Ig 20 nM final; read-out: Jurkat HPDL1 PD1 IC50 (uM) (Method 1)

T1 sequence (Q15116 25-288): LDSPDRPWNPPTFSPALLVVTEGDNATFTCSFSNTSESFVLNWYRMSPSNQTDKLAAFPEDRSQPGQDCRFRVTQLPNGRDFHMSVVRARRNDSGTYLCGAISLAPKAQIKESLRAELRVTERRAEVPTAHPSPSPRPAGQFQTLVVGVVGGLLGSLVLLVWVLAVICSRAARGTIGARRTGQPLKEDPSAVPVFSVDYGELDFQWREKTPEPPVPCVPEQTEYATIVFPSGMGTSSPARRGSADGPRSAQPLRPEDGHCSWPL

Compound | IC50 [µM]
CC(C)C[C@@H]1NC(=O)[C@H](CCN)NC(=O)[C@@H](CC(C)C)NC(=O)[C@H](C)N(C)C(=O)[C@H](CCCNC(N)=O)NC(=O)[C@H](Cc2ccc(-c3ccccc3)cc2)NC(=O)[C@H](C(C)C)NC(=O)[C@H](Cc2c[nH]c3ccccc23)NC(=O)[C@H](CC(=O)O)NC(=O)[C@H](Cc2ccc(OCC(=O)O)cc2)NC(=O)[C@H](Cc2ccccn2)NC(=O)CSC[C@@H](C(=O)N[C@@H](C)C(N)=O)NC(=O)[C@H]([C@@H](C)O)NC(=O)[C@H](C(C)C)NC1=O [Compound 1329] ({CH2CO}-[2Pal]Y(Carboxymethyl)DWV[Bip][Cit][NMeA][dL][Dab]LVTCA-NH2; thioether N-14) | 0.19
CC(C)C[C@@H]1NC(=O)[C@H](Cc2c[nH]c3ccccc23)NC(=O)[C@H](CC(=O)O)NC(=O)[C@H](Cc2ccc(CN)cc2)NC(=O)[C@H](Cc2ccccc2)NC(=O)CSC[C@@H](C(=O)N[C@@H](C)C(N)=O)NC(=O)[C@H](CO)NC(=O)[C@H](C(C)C)NC(=O)[C@H](CC(C)C)NC(=O)[C@H](CC(N)=O)NC(=O)[C@@H](C)NC(=O)[C@H](C)N(C)C(=O)[C@H](C(C)C)NC(=O)[C@H](Cc2ccc(-c3ccccc3)cc2)NC1=O [Compound 1750] ({CH2CO}-F[Phe(4-CH2NH2)]DWL[Bip]V[NMeA][dA]NLVSCA-NH2; thioether N-14) | 0.02
Cc1cccc(C[C@@H]2NC(=O)[C@H](CC(=O)O)NC(=O)[C@H](Cc3ccc(OCC(=O)O)cc3)NC(=O)[C@H](CCN)NC(=O)CSC[C@@H](C(=O)N[C@@H](CCN)C(N)=O)NC(=O)[C@H](CO)NC(=O)[C@H](C(C)(C)O)NC(=O)[C@H](CC3CCCCC3)NC(=O)[C@H](CCN)NC(=O)[C@@H](CC(C)C)NC(=O)[C@H](C)N(C)C(=O)[C@H](C(C)(C)C(=O)O)NC(=O)[C@H](Cc3ccc(-c4ccccc4)cc3)NC(=O)[C@H](Cc3ccc(OCC(=O)O)cc3)NC2=O)c1 [Compound 1846] ({CH2CO}-[Dab]Y(Carboxymethyl)D[Phe(3-Me)]Y(Carboxymethyl)[Bip][Asp(3,3-Me2)][NMeA][dL][Dab][Cha][Val(3-OH)]SC[Dab]-NH2; thioether N-14) | 0.02

Now from value to compound:

IC50 [µM] | Compound
0.69 | CC(C)C[C@@H]1NC(=O)[C@H](CCN)NC(=O)[C@@H](CC(C)C)NC(=O)[C@H](C)N(C)C(=O)[C@H](CCCNC(=N)N)NC(=O)[C@H](Cc2ccc(-c3cccc(O)c3)cc2)NC(=O)[C@H](C(C)C)NC(=O)[C@H](Cc2c[nH]c3ccccc23)NC(=O)[C@H](CC(=O)O)NC(=O)[C@H](Cc2ccc(O)cc2)NC(=O)[C@H](CC(N)=O)NC(=O)CSC[C@@H](C(=O)N[C@@H](C)C(N)=O)NC(=O)[C@H]([C@@H](C)O)NC(=O)[C@H](C(C)C)NC1=O [Compound 1212] ({CH2CO}-NYDWV[X40]R[NMeA][dL][Dab]LVTCA-NH2; thioether N-14)
0.05 | CC(C)C[C@@H]1NC(=O)[C@H](CCN)NC(=O)[C@@H](CC(C)C)NC(=O)[C@H](C)N(C)C(=O)[C@H](CCCNC(N)=O)NC(=O)[C@H](Cc2ccc(-c3ccccc3)cc2)NC(=O)[C@H](C(C)C)NC(=O)[C@H](Cc2c[nH]c3ccccc23)NC(=O)[C@H](CC(=O)O)NC(=O)[C@H](Cc2ccc(O)cc2)NC(=O)[C@H](CCCNC(=N)N)NC(=O)CSC[C@@H](C(=O)N[C@@H](C)C(N)=O)NC(=O)[C@H]([C@@H](C)O)NC(=O)[C@H](C(C)C)NC1=O [Compound 1351] ({CH2CO}-RYDWV[Bip][Cit][NMeA][dL][Dab]LVTCA-NH2; thioether N-14)
0.02 | CC(C)C[C@@H]1NC(=O)[C@H](CCN)NC(=O)[C@@H](CC(C)C)NC(=O)[C@H](C)N(C)C(=O)[C@H](CCCNC(N)=O)NC(=O)[C@H](Cc2ccc(-c3ccccc3)cc2)NC(=O)[C@H](C(C)C)NC(=O)[C@H](Cc2c[nH]c3ccccc23)NC(=O)[C@H](CC(=O)O)NC(=O)[C@H](Cc2ccncc2)NC(=O)[C@H](CC(N)=O)NC(=O)CSC[C@@H](C(=O)N[C@@H](C)C(N)=O)NC(=O)[C@H]([C@@H](C)O)NC(=O)[C@H](C(C)C)NC1=O [Compound 1320] ({CH2CO}-N[4Pal]DWV[Bip][Cit][NMeA][dL][Dab]LVTCA-NH2; thioether N-14)
